Assay results reported in publication PMC7714071, “Interaction of amyloid beta with humanin and acetylcholinesterase is modulated by ATP” (FEBS Open Bio, 2020).

System: Aβ in A549 cell-conditioned media
Assay: ELISA, oligomer versus total Aβ in A549 cell-conditioned media
Type: cell-based, human
Details: Fig. 8A
Experimental: Aβ ELISAs were carried out according to previous protocols for determining the oligomeric and monomeric concentrations of Aβ and as we recently reported. Briefly, total Aβ (monomers + oligomers) was measured by two‐site binding ELISAs using the capture 6E10 monoclonal antibody and 4G8‐conjugated biotin as the detection antibody, which recognizes a distinct epitope, then quantitated using streptavidin‐HRP.
Using the same samples, oligomerized Aβ was measured by a single‐site ELISA in which antibodies targeting the same primary sequence epitope were used for both capture (4G8) and detection (4G8‐biotin). Only oligomers are detected with this approach since the 4G8‐biotin antibody cannot bind to the captured monomer because the epitope is blocked by the 4G8 capture antibody. Therefore, only oligomeric or multimeric Aβ containing additional exposed 4G8 epitopes, not engaged by the capture antibody, are reported by the streptavidin–HRP. The amount of the monomer was then estimated as the difference between the concentration of total Aβ and the concentration of the oligomer.
Conditioned media were immunodepleted (ID) according to the methods previously described and our recently published report. Briefly, specific antibodies were bound to ELISA wells overnight (1 : 1000 dilution). The wells were then blocked and washed, then 300 μL of the conditioned medium (0.5 μg·μL^−1) treated as indicated, 72 h postserum starvation, was incubated with the antibodies bound to ELISA wells for 24 h. The ID media were then carefully removed and analyzed for the presence of the target protein or peptide by ELISA. The same amount of protein (3 µL of 600 µg·mL^−1 total protein) of each sample was analyzed in the experiments. Significant depletion (95–100%) was observed upon using each of the antibodies employed in this study.
Both epitopes recognized by the 6E10 and 4G8 antibodies have been previously shown to be exposed in Aβ aggregates. […] To determine the effect of ID of AChE or HN on this ratio in the absence or presence of added ATP, 0.2 × 10^5 cells per well were seeded in 96‐well plates in 10% FBS‐supplemented media. The next day, the cells were incubated in serum‐free medium for 72 h, then ID of AChE or HN as described in Materials and methods. The antibodies 6E10 or 4G8 were bound (1 : 1000 dilution) to ELISA wells (Fig. 8). The wells were blocked, and then incubated with 300 μL of the ID medium (0.5 μg·μL^−1). Biotin‐4G8 was then added and the signal processed as described in Materials and methods section. Fold change relative to controls using anti‐6E10 or anti‐4G8 antibodies incubated with 300 μL of the medium not incubated with cells was calculated.
Cells (0.2 × 10^5) were grown in 10% FBS‐supplemented media for 24 h. The cells were then incubated in serum‐free medium for 72 h without or with ATP and the media collected and ID from either HN or AChE as described in Materials and methods section. The antibodies 6E10 or 4G8 were bound (1 : 1000 dilution) to ELISA wells. The wells were blocked, and then incubated with 300 μL of the control and ID medium (0.5 μg·μL^−1). Biotin‐4G8 was then added and the signal processed as described in Materials and methods section. Fold change relative to controls using anti‐6E10 and anti‐4G8 antibodies and 300 μL of the medium not incubated with cells was calculated. Data were processed using the […] 8.4.3 software. The graphs summarize the results expressed as means ± SD of three separate experiments, each performed in triplicate. […]

Molecule	effect of ATP on relative amount of oligomer versus total Aβ (HN-immunodepleted A549 media, three experiments in triplicate)	effect of ATP on relative amount of oligomer versus total Aβ (non-depleted, HN-ID or AChE-ID media)	oligomer, % of total Aβ remaining after HN ID (HN-immunodepleted A549 media (non-depleted ~ 63%))	total Aβ remaining after HN ID (HN-immunodepleted A549 media)
Nc1ncnc2c1ncn2[C@@H]1O[C@H](COP(=O)(O)OP(=O)(O)OP(=O)(O)O)[C@@H](O)[C@H]1O [ATP, Adenosine triphosphate]	does not affect	lack of effect		
Humanin [HN]			~ 86%	~ 63%
